What follows are compounds tested against 5-hydroxytryptamine receptor 7 (Homo sapiens, UniProt P34969) (assay: Displacement of [3H]-LSD from 5HT7 receptor (unknown origin) expressed in CHOK1 cells).
Format: cell-based, CHO-K1

Chain of 5-hydroxytryptamine receptor 7 (P34969 whole entry): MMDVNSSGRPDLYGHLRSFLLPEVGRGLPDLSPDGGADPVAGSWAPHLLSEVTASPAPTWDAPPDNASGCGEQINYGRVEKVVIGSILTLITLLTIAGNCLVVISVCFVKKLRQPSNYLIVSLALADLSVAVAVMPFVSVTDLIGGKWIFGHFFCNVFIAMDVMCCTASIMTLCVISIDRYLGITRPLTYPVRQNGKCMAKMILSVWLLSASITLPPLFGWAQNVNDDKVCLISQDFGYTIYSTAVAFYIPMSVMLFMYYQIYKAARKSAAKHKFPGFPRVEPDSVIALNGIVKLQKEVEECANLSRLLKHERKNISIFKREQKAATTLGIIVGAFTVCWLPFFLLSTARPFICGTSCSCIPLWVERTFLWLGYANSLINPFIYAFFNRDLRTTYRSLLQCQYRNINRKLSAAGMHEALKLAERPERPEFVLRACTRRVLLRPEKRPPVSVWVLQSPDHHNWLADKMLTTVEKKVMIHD

Compound | Ki [nM]
COc1ccc(-c2ccccc2CN2CCN(c3ccccc3OC)CC2)cc1 | 46
COc1ccccc1N1CCN(Cc2ccccc2-c2ccccc2F)CC1 | 658
COc1ccc(N2CCN(Cc3ccccc3-c3ccccc3)CC2)cc1 | > 10000
COc1ccccc1N1CCN(Cc2ccccc2-c2cccc(Cl)c2)CC1 | 219
COc1ccccc1N1CCN(Cc2ccccc2-c2ccc(Cl)cc2)CC1 | 220
FC(F)(F)c1cccc(N2CCN(Cc3ccccc3-c3ccccc3)CC2)c1 | 1660
COc1ccccc1N1CCN(Cc2ccccc2-c2ccccc2C)CC1 | 311
Clc1ccc(N2CCN(Cc3ccccc3-c3ccccc3)CC2)cc1 | > 10000
COc1ccccc1-c1ccccc1CN1CCN(c2ccccc2OC)CC1 | 43
COc1cccc(-c2ccccc2CN2CCN(c3ccccc3OC)CC2)c1 | 77
COc1ccccc1N1CCN(Cc2ccccc2-c2ccccc2Cl)CC1 | 297

More lines, now with the values ahead:

Ki [nM] | Compound
> 10000 | Cc1cccc(N2CCN(Cc3ccccc3-c3ccccc3)CC2)c1C
> 10000 | Clc1ccccc1N1CCN(Cc2ccccc2-c2ccccc2)CC1
> 10000 | COc1cccc(N2CCN(Cc3ccccc3-c3ccccc3)CC2)c1
> 10000 | Fc1cccc(N2CCN(Cc3ccccc3-c3ccccc3)CC2)c1
1200 | Cc1cccc(N2CCN(Cc3ccccc3-c3ccccc3)CC2)c1
> 10000 | Cc1ccc(C)c(N2CCN(Cc3ccccc3-c3ccccc3)CC2)c1
1750 | Cc1ccccc1N1CCN(Cc2ccccc2-c2ccccc2)CC1
> 10000 | Fc1ccc(N2CCN(Cc3ccccc3-c3ccccc3)CC2)cc1
> 10000 | Cc1cc(C)cc(N2CCN(Cc3ccccc3-c3ccccc3)CC2)c1
1850 | COc1ccc(N2CCN(Cc3ccccc3-c3ccccc3)CC2)cc1OC
> 10000 | Cc1ccc(N2CCN(Cc3ccccc3-c3ccccc3)CC2)c(C)c1
2760 | Cc1ccc(N2CCN(Cc3ccccc3-c3ccccc3)CC2)cc1
> 10000 | Fc1ccccc1N1CCN(Cc2ccccc2-c2ccccc2)CC1
